Data as given in patent publication US11584712B2, “Alkylamine-substituted perthiocarbamates as dual precursors to hydropersulfide and carbonyl sulfide” (The Johns Hopkins University, priority 2020, dated 2023).
“And” between values parts separate entries of the source, which are not always exact repeats. Identical values can stand only once. “Also recorded” adds a separate entry of the source.

Columns and labels:
H9c2 cells [1] = assay: H9c2 cell protection from H2O2-mediated oxidative stress, SYTOX Green nucleic acid stain; assay type: cell-based, rat; conditions: 2 h pretreatment (150 μM for 8), then H2O2 200 μM
Description: Cells were seeded at a density of 1×10^4 cells/well. After 24 h, precursor 7b or byproduct 2b is added in 20 μL volumes using DMSO: H2O (<0.01% DMSO). Cells were incubated for 2 h before media was removed and the cells gently washed with PBS (pH 7.4). Then, 180 μL of fresh media and 20 μL H2O2 diluted in H2O were added before cells were incubated for an additional 1 h. After removing this media, 100 μL of media containing 3 μM SYTOX™ Green nucleic acid stain was added, and the cells incubated for 2 h before fluorescence readings were obtained at 485Ex/538Em (Step 1). Finally, an additional 100 μL of media containing 3 μM SYTOX™ and 0.2% Triton X-100 was added in order to permeabilize all cells and incubated for 1 h before fluorescence values measured (Step 2). The relative % cells surviving was calculated as a 100% minus the ratio of the fluorescence value of Step 1 over Step 2 (% cells surviving=100%−(FL538 (Step 1)/FL538 (Step 2)). Fluorescence values for vehicle-treated, non-H2O2-exposed wells were treated as background cell death and this value is added to the % cell survival for each subsequent group.
See Hofgaard et al., 2006, for general procedures. […] After removing this media, 100 μL of media containing 3 μM SYTOX® Green nucleic acid stain was added, and the cells incubated for 2 h before fluorescence readings were obtained at 485Ex/538Em (Step 1). […]

H9c2 cells [2] = assay: Cytotoxicity study with SYTOX Green nucleic acid stain; assay type: cell-based, rat; conditions: 24 h exposure, 0-150 μM
Description: H9c2(2-1) embryonic rat heart myoblasts were obtained from the American Type Culture Collection. Cells were grown in Dulbecco's […] (DMEM), supplemented with fetal bovine serum (FBS) 10%, penicillin 100 U/mL and streptomycin 100 μg/mL. They were propagated in T75-flasks, split before reaching 70-80% confluence (usually every day or every second day), and used within 11 passages. Cells were passaged to tissue culture treated 96-well microtiter plates at the specified density in 180 μL volumes and incubated for 24 h.
Cells were seeded at a density of 1×10^4 cells/well. […] Then, 100 μL of media containing 3 μM SYTOX™ Green nucleic acid stain (Invitrogen) was added and the cells were incubated for 2 h before fluorescence readings were obtained at 485Ex/538Em (Step 1). Finally, an additional 100 μL of media containing 3 μM SYTOX™ and 0.2% Triton X-100 was added in order to permeabilize all cells and incubated for 1 h before fluorescence values measured (Step 2). The relative % cells surviving was calculated as a 100% minus the ratio of the fluorescence value of Step 1 over Step 2 (% cells surviving=100%−(FL538 (Step 1)/FL538(Step 2)).
Cells were seeded at a density of 1×10^4 cells/well. […] The relative % cells surviving was calculated as a 100% minus the ratio of the fluorescence value of Step 1 over Step 2 (% cells surviving=100%−(FL538 (Step 1)/FL538(Step 2)).

H9c2 cells [3] = assay: H9c2 cell protection from H2O2-mediated oxidative stress, Cell Counting Kit-8 (CCK-8); assay type: cell-based, rat; conditions: 2 h pretreatment (7b 50, 100, 150 μM; byproduct 150 μM), then H2O2 200 μM 2 h
Description: Cells were seeded at a density of 5×10^3 cells/well. After 24 h, precursor 7b or byproduct 2b was added at 20 μL volumes using DMSO:H2O (<0.01% DMSO as the vehicle). Cells were incubated for 2 h before media was removed and the cells gently washed with PBS (pH 7.4). Then, 180 μL of fresh media and 20 μL H2O2 diluted into H2O were added and cells were incubated for an additional 2 h. At the completion of H2O2 exposure, each well is carefully washed 3 times with PBS (pH 7.4) before adding 100 μL of media, without-FBS, containing 10% v/v CCK-8 (Dojindo) and incubated for 3 h prior to obtaining absorbance values at 450 nm. The relative % viability was calculated as 100 times the ratio of the Abs450 (pretreated, H2O2-exposed) over Abs450 (vehicle-treated, non H2O2-exposed).

[4] = RSSH generation in the presence of glutathione by UPLC-MS; assay type: physicochemical
Description: The reaction mixture was quenched with 1% formic acid and analyzed by UPLC-MS. Under these conditions, 42±1 μM of 2b formation is observed. RSSH-derived symmetrical dialkyl polysulfide labeled as S3 and S4 (R^1SSnSR^1, n=1-2), and unsymmetrical dialkyl polysulfide labeled as ′S2 to ′S4 (R^1SSnSR^3, n=0-2) formation are observed. 4-Hydroxyphenyl acetamide, labeled as asterisk, is used as internal standard in these experiments;

[5] = Kinetics of decomposition of 7a and formation of 2a and 9 by UPLC-MS; assay type: physicochemical; conditions: 7a 20 μM, HPE-IAM 1 mM, ammonium bicarbonate buffer 50 mM with DTPA
Description: An aliquot of the reaction mixture was withdrawn at the specified time and quenched with 1% formic acid. The curves are the calculated best fits to a single-exponential function. The pseudo-first order rate constants for 7a, 9 and 2a are 0.59±0.02, 0.57±002, and 0.58±0.03 min^−1, respectively;

| Compound | protection against H2O2-mediated toxicity (SYTOX) (H9c2 cells [1]) | cytotoxicity toward H9c2 cells (H9c2 cells [2]) | protection against H2O2-mediated toxicity (CCK-8 viability) (H9c2 cells [3]) | byproduct 2b formation ([4]; 7b 100 μM, glutathione 500 μM, pH 7.4 ammonium bicarbonate 50 mM with DTPA, 37° C., 45 min) | yield of byproduct 2b ([4]; in the presence of GSH, pH 7.4) | pseudo-first order rate constant of RSS-HPE-AM 9 formation [5] | pseudo-first order rate constant of byproduct 2a formation [5] | pseudo-first order rate constant of precursor decomposition [5] |
| --- | --- | --- | --- | --- | --- | --- | --- | --- |
| COC(=O)C(NC(C)=O)C(C)(C)SSC(=O)N(C)CCN (centres unmarked) [Precursor 7b, 2-(((3-acetamido-4-methoxy-2-methyl-4-oxobutan-2-yl)disulfannecarbonyl)(methyl)amino)ethan-1-aminium] | protective effects | no toxicity; also recorded: not cytotoxic | dose-dependent attenuation | 42 ± 1 µM | 42% | – | – | – |
| CNCCN(C)C(=O)SSC(C)(C)C(NC(C)=O)C(=O)OC (centres unmarked) [Precursor 7a, 2-(((3-acetamido-4-methoxy-2-methyl-4-oxobutan-2-yl)disulfannecarbonyl)(methyl)amino)-N-methylethan-1-aminium] | – | – | – | – | – | 0.58 ± 0.02 min⁻¹ and 0.57 ± 002 min⁻¹ | 0.57 ± 0.02 min⁻¹ and 0.58 ± 0.03 min⁻¹ | 0.59 ± 0.02 min⁻¹ |
